These results are taken from PubChem BioAssay (NCI).

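A five-concentration, 48-hour dose response in 96-well plates underlies each endpoint, interpolated linearly between surrounding concentrations. GI50: concentration for 50% inhibition of growth. TGI denotes the concentration required for complete inhibition of growth.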

Test systems include SK-MEL-28 melanoma; SF-539 CNS; OVCAR-5 ovarian; UACC-62 melanoma; UACC-257 melanoma; OVCAR-8 ovarian; RXF 393 renal; NCI-H522 lung; T-47D breast; NCI/ADR-RES ovarian.
What all share (experiment): NCI-60 cell line screen, 48 h

For `FC(F)(F)c1nc(Br)[nH]c1C(F)(F)F`, the TGI in the experiment with SK-MEL-28 melanoma, in the experiment with SF-539 CNS, in the experiment with OVCAR-5 ovarian, in the experiment on UACC-62 melanoma, in the experiment with UACC-257 melanoma and in the experiment with OVCAR-8 ovarian was more than 100 µM throughout. The compound also came in with a TGI in the experiment with RXF 393 renal of more than 100 µM.
In the case of `C=C1C(C(=O)O)C1C(=O)O` (stereo not drawn), the TGI in the experiment with SK-MEL-28 melanoma, in the experiment with SF-539 CNS, in the experiment on OVCAR-5 ovarian, with UACC-62 melanoma, in the experiment on NCI-H522 lung and in the experiment on UACC-257 melanoma was more than 100 µM each time. Moreover, the TGI with OVCAR-8 ovarian and with RXF 393 renal was more than 100 µM in each case.
Regarding `CCOC(=O)c1ccc(NC(=O)c2cccc(NC3=C(Cl)C(=O)N(Cc4ccccc4)C3=O)c2)cc1`, the GI50 with SK-MEL-28 melanoma is more than 100 µM; in the experiment on SF-539 CNS, more than 100 µM; in the experiment on UACC-62 melanoma it was more than 100 µM; with T-47D breast, more than 100 µM; in the experiment with NCI-H522 lung, 62.9 µM; in the experiment with UACC-257 melanoma, more than 100 µM. Moreover, the GI50 in the experiment with OVCAR-8 ovarian and in the experiment on RXF 393 renal was more than 100 µM throughout. For the same compound, the TGI in the experiment with SK-MEL-28 melanoma, with SF-539 CNS, in the experiment on UACC-62 melanoma, with T-47D breast, with NCI-H522 lung and in the experiment with UACC-257 melanoma was more than 100 µM throughout. Also, the TGI in the experiment with OVCAR-8 ovarian and in the experiment with RXF 393 renal was more than 100 µM throughout.
As for `Cc1cn2c(/C=C3\C(=O)N(C)c4ccc(Cl)cc43)c(C)nc2s1`, the GI50 is 6.6 µM in the experiment with SK-MEL-28 melanoma; 2.46 µM in the experiment with SF-539 CNS; 3.16 µM in the experiment with OVCAR-5 ovarian; 3.7 µM in the experiment with UACC-62 melanoma; 1.9 µM with NCI/ADR-RES ovarian; more than 100 µM in the experiment on T-47D breast. The GI50 was 2.76 µM in the experiment with NCI-H522 lung, 3.37 µM in the experiment with UACC-257 melanoma and 5.5 µM in the experiment on OVCAR-8 ovarian. Moreover, the TGI with SK-MEL-28 melanoma is more than 100 µM; in the experiment with SF-539 CNS, 6.93 µM; in the experiment with OVCAR-5 ovarian, 12.2 µM; with UACC-62 melanoma, more than 100 µM; in the experiment with NCI/ADR-RES ovarian it was 5.66 µM; in the experiment with T-47D breast it was more than 100 µM. Besides, the results for the TGI with NCI-H522 lung, in the experiment with UACC-257 melanoma and in the experiment with OVCAR-8 ovarian were 7.76 µM, 38.6 µM and more than 100 µM, respectively.
With `O=C(CC1Sc2ccccc2NC1=O)NNc1ccc(F)cc1` (stereo not drawn), the GI50 in the experiment on SK-MEL-28 melanoma was more than 100 µM; with SF-539 CNS it was 16.3 µM; with OVCAR-5 ovarian, more than 100 µM; in the experiment with UACC-62 melanoma it was 6.94 µM; with NCI/ADR-RES ovarian, 22.5 µM; in the experiment on T-47D breast, 14.6 µM. Besides, the GI50 in the experiment on NCI-H522 lung is 9.39 µM; with OVCAR-8 ovarian, 9.78 µM; with RXF 393 renal, more than 100 µM. Moreover, the TGI in the experiment with SK-MEL-28 melanoma is more than 100 µM; in the experiment on SF-539 CNS it was 61.8 µM; in the experiment on OVCAR-5 ovarian, more than 100 µM; in the experiment on UACC-62 melanoma, more than 100 µM; in the experiment with NCI/ADR-RES ovarian it was more than 100 µM; in the experiment with T-47D breast, more than 100 µM. In addition, the TGI in the experiment with NCI-H522 lung, with OVCAR-8 ovarian and in the experiment on RXF 393 renal was more than 100 µM in each case.
As to `CC(=N/NC(N)=S)/C(C)=N/NC(N)=S`, the TGI in the experiment on SK-MEL-28 melanoma, in the experiment with SF-539 CNS, with OVCAR-5 ovarian, with UACC-62 melanoma, in the experiment on NCI/ADR-RES ovarian and with NCI-H522 lung was more than 100 µM each time. Further, the TGI with UACC-257 melanoma, in the experiment with OVCAR-8 ovarian and in the experiment with RXF 393 renal was more than 100 µM in each case.
On to `CCCCNCCCCCNc1cc(OC)cc2cccnc12`, for which the GI50 with SF-539 CNS was 18.3 µM; in the experiment on OVCAR-5 ovarian, 15.1 µM; in the experiment with UACC-62 melanoma, 19.9 µM; in the experiment with NCI/ADR-RES ovarian, 17.2 µM; with NCI-H522 lung, 17.5 µM; in the experiment on UACC-257 melanoma, 16.1 µM. Moreover, the GI50 is 17.8 µM in the experiment with OVCAR-8 ovarian and 12.3 µM with RXF 393 renal. Also, the TGI is 34 µM in the experiment on SF-539 CNS; 30.9 µM in the experiment on OVCAR-5 ovarian; 40.3 µM with UACC-62 melanoma; 36.4 µM with NCI/ADR-RES ovarian; 33.8 µM in the experiment on NCI-H522 lung; 32.2 µM in the experiment on UACC-257 melanoma. Moreover, the results for the TGI in the experiment with OVCAR-8 ovarian and in the experiment with RXF 393 renal were 37.6 µM and 27.9 µM, respectively.
Consider `CCSCCCC(=O)O`, for which the TGI in the experiment with SK-MEL-28 melanoma, with OVCAR-5 ovarian, in the experiment with UACC-62 melanoma, in the experiment with NCI/ADR-RES ovarian, in the experiment with T-47D breast and in the experiment on NCI-H522 lung was more than 100 µM in each case. The TGI with UACC-257 melanoma, in the experiment with OVCAR-8 ovarian and in the experiment with RXF 393 renal was more than 100 µM throughout.
Consider `CN(C)CCNC(=O)c1cccc2c1nc(-c1ccncc1)c1ccccc12`, for which the TGI in the experiment with SK-MEL-28 melanoma came out at 17.6 µM; in the experiment with SF-539 CNS it was 10.7 µM; in the experiment on OVCAR-5 ovarian, 23.7 µM; in the experiment with UACC-62 melanoma, 6.44 µM; in the experiment on UACC-257 melanoma, 12.6 µM; in the experiment on OVCAR-8 ovarian, 41.9 µM. In addition, the TGI with RXF 393 renal was 7.55 µM.
Turning to `CC[P+]1(c2ccccc2)CCCCC1`, the TGI in the experiment with SK-MEL-28 melanoma, with SF-539 CNS, with OVCAR-5 ovarian, with UACC-62 melanoma, with UACC-257 melanoma and in the experiment with OVCAR-8 ovarian was more than 100 µM in each case. The TGI in the experiment with RXF 393 renal is more than 100 µM.
Regarding `O=C(OCc1ccccc1)n1cccc1`, the TGI with SK-MEL-28 melanoma, in the experiment with SF-539 CNS, in the experiment with OVCAR-5 ovarian, with UACC-62 melanoma, with NCI-H522 lung and in the experiment with UACC-257 melanoma was more than 100 µM each time. In addition, the TGI in the experiment on OVCAR-8 ovarian and with RXF 393 renal was more than 100 µM each time.
Take `O=C(O)c1cc(Cl)cc(Cc2cc(Cl)cc(C(=O)O)c2O)c1O`: the TGI with SK-MEL-28 melanoma, in the experiment on SF-539 CNS, in the experiment on OVCAR-5 ovarian, with UACC-62 melanoma, in the experiment with NCI/ADR-RES ovarian and in the experiment with T-47D breast was more than 100 µM in each case. Besides, the TGI with NCI-H522 lung, in the experiment on OVCAR-8 ovarian and in the experiment on RXF 393 renal was more than 100 µM throughout.
`O=C1CCc2ccc(O)c(c2)Oc2ccc(cc2)[C@@H]2O[C@@H]2CO1`: the TGI in the experiment with SK-MEL-28 melanoma, in the experiment on SF-539 CNS, with OVCAR-5 ovarian, with UACC-62 melanoma, in the experiment with UACC-257 melanoma and with OVCAR-8 ovarian was more than 100 µM throughout.
